# Data reported in patent publication US12203089B2, “Plants having increased tolerance to herbicides” (BASF SE, priority 2015, dated 2025).
# Columns and labels:
# Type in all cases: in vivo
# [1] = tested on: Arabidopsis thaliana expressing AtCesA3_wt (SEQ ID 3); experiment: 48-well plate growth inhibition, T2 seeds, tolerance factor; details: based on IC50 values of growth inhibition, seven to ten days after seeding
# Experimental: (§1) Transgenic Arabidopsis thaliana plants (T2) are assayed for improved tolerance to azine herbicides like e. g. 6-cyclopentyl-N4-(2,3,4,5,6-pentafluorophenyl)-1,3,5-triazine-2,4-diamine in 48-well plates. Therefore, T2 seeds are surface sterilized by stirring for 5 min in ethanol+water (70+30 by volume), rinsing one time with ethanol+water (70+30 by volume) and two times with sterile, deionized water. The seeds are resuspended in 0.1% agar dissolved in water (w/v) Four to five seeds per well are plated on solid nutrient medium consisting of half-strength murashige skoog nutrient solution, pH 5.8 (Murashige and Skoog (1962) Physiologia Plantarum 15: 473-497). Compounds are dissolved in dimethylsulfoxid (DMSO) and added to the medium prior solidification (final DMSO concentration 0.1%). Multi well plates are incubated in a growth chamber at 22° C., 75% relative humidity and 110 μmol Phot*m^−2*s^−1 with 14:10 h light:dark photoperiod. Growth inhibition is evaluated seven to ten days after seeding in comparison to wild type plants. Tolerance factors are calculated based on IC50 values of growth inhibition of transformed versus non-transformed Arabidopsis plants.
# [2] = tested on: Arabidopsis thaliana expressing AtCesA3_S983F_S1040L (SEQ ID 3); experiment: as above; details: based on IC50 values of growth inhibition, seven to ten days after seeding
# Experimental: as §1
# [3] = tested on: Arabidopsis thaliana expressing AtCesA3_S983F_S1037F (SEQ ID 3); experiment: as above; details: based on IC50 values of growth inhibition, seven to ten days after seeding
# Experimental: as §1
# [4] = tested on: Arabidopsis thaliana expressing AtCesA1_P1010L_G1013R (SEQ ID 1); experiment: as above; details: based on IC50 values of growth inhibition, seven to ten days after seeding
# Experimental: as §1
# [5] = tested on: Arabidopsis thaliana expressing AtCesA1_G1009D_G1013R (SEQ ID 1); experiment: as above; details: based on IC50 values of growth inhibition, seven to ten days after seeding
# Experimental: as §1
# [6] = tested on: Arabidopsis thaliana expressing AtCesA1_wt (SEQ ID 1); experiment: as above; details: based on IC50 values of growth inhibition, seven to ten days after seeding
# Experimental: as §1
# [7] = tested on: Brassica napus expressing BnaA03g52020D (SEQ ID 15) variant G1015R; experiment: Greenhouse herbicide tolerance, post emergent; details: 7 days after treatment
# Experimental: (§2) T1/T2 transgenic plants of Brassica napus containing cellulose synthase sequences or mutated gene variants thereof are tested for improved tolerance to herbicides in greenhouse studies with azine herbicides. For the pre-emergence treatment, the herbicides are applied directly after sowing by means of finely distributing nozzles. The containers are irrigated gently to promote germination and growth and subsequently covered with transparent plastic hoods until the plants have rooted. This cover causes uniform germination of the test plants, unless this has been impaired by the herbicides. For post emergence treatment, the test plants are first grown to a height of 3 to 15 cm, depending on the plant habit, and only then treated with the herbicides. For this purpose, the test plants are either sown directly, and grown in the same containers or they are first grown separately and transplanted into the test containers a few days prior to treatment.
# (§3) Herbicide injury evaluations are taken at 1, 2 and 3 weeks after treatment. Plant biomass reduction is rated on a scale of 0% to 100%, 0% being no reduction of biomass compared to untreated control, and 100% being complete absence of biomass.
# [8] = tested on: Brassica napus expressing BnaA01g04600D (SEQ ID 21) variant G1012R; experiment: Greenhouse herbicide tolerance, post emergent; details: 7 days after treatment
# Experimental: as §2, §3
# [9] = tested on: Brassica napus wildtype; experiment: Greenhouse herbicide tolerance, post emergent; details: 7 days after treatment
# Experimental: as §2, §3
# [10] = tested on: Brassica napus expressing BnaAnng01240D (SEQ ID 20) variant S1038F; experiment: Greenhouse herbicide tolerance, post emergent; details: 7 days after treatment
# Experimental: as §2, §3
# [11] = tested on: Brassica napus expressing BnaA03g55200D (SEQ ID 12) variant S1038F; experiment: Greenhouse herbicide tolerance, post emergent; details: 7 days after treatment
# Experimental: as §2, §3
# [12] = tested on: Brassica napus expressing BnaAnng01240D (SEQ ID 20) variant S1041L; experiment: 6-well plate injury test, T1 seeds on vermiculite; details: BnaAnng01240D S1041L event 1, 7 days after treatment
# Experimental: (§4) Transgenic Brassica napus plants are assayed for improved tolerance to azine herbicides like e. g. 6-cyclopentyl-N4-(2,3,4,5,6-pentafluorophenyl)-1,3,5-triazine-2,4-diamine in 6-well plates. Therefore, 5-6 T1 seeds are sown on vermiculite and watered with half-strength murashige skoog nutrient solution, pH 5.8 (Murashige and Skoog (1962) Physiologia Plantarum 15: 473-497). Compounds are dissolved in dimethylsulfoxid (DMSO) and added to the medium (final DMSO concentration 0.1%). Multi well plates are incubated in a growth chamber at 22° C., 75% relative humidity and 110 μmol Phot*m^−2*s^−1 with 14: 10 h light: dark photoperiod. Growth inhibition is evaluated seven to ten days after seeding in comparison to wild type plants. Plant injury is rated on a scale of 0% to 100%, 0% being no injury and 100% being complete death.
# [13] = tested on: Brassica napus expressing BnaAnng01240D (SEQ ID 20) variant S1038F; experiment: 6-well plate injury test, T1 seeds on vermiculite; details: BnaAnng01240D S1038F event 1, 7 days after treatment
# Experimental: as §4
smiles,measurement,setting,value
"Nc1nc(Nc2nc(F)c(F)c(Cl)c2F)nc(C2(F)CCCC2)n1 [N2-(4-chloro-3,5,6-trifluoro-2-pyridyl)-6-(1-fluorocyclopentyl)-1,3,5-triazine-2,4-diamine]",Relative tolerance rate as compared to non-transgenic Arabidopsis plants (non-transgenic = 1.0),[1],1
same,Relative tolerance rate as compared to non-transgenic Arabidopsis plants (non-transgenic = 1.0),[2],4
same,Relative tolerance rate as compared to non-transgenic Arabidopsis plants (non-transgenic = 1.0),[3],5
same,Relative tolerance rate as compared to non-transgenic Arabidopsis plants (non-transgenic = 1.0),[4],1
same,Relative tolerance rate as compared to non-transgenic Arabidopsis plants (non-transgenic = 1.0),[5],1
same,Relative tolerance rate as compared to non-transgenic Arabidopsis plants (non-transgenic = 1.0),[6],2
same,average phytotox value,"[7]; 1st listed line, 7.8 g/ha",34%
same,average phytotox value,"[7]; 1st listed line, 15.6 g/ha",43%
same,average phytotox value,"[7]; 1st listed line, 31.25 g/ha",50%
same,average phytotox value,"[7]; 1st listed line, 62.5 g/ha",73%
same,average phytotox value,"[7]; 2nd listed line, 7.8 g/ha",16%
same,average phytotox value,"[7]; 2nd listed line, 15.6 g/ha",41%
same,average phytotox value,"[7]; 2nd listed line, 31.25 g/ha",62%
same,average phytotox value,"[7]; 2nd listed line, 62.5 g/ha",72%
same,average phytotox value,[8]; 7.8 g/ha,34%
same,average phytotox value,[8]; 15.6 g/ha,61%
same,average phytotox value,[8]; 31.25 g/ha,65%
same,average phytotox value,[8]; 62.5 g/ha,72%
same,average phytotox value,[9]; 7.8 g/ha,42%
same,average phytotox value,[9]; 15.6 g/ha,56%
same,average phytotox value,[9]; 31.25 g/ha,70%
same,average phytotox value,[9]; 62.5 g/ha,83%
same,average phytotox value,"[10]; 1st listed line, 7.8 g/ha",7%
same,average phytotox value,"[10]; 1st listed line, 15.6 g/ha",17%
same,average phytotox value,"[10]; 1st listed line, 31.25 g/ha",47%
same,average phytotox value,"[10]; 1st listed line, 62.5 g/ha",54%
same,average phytotox value,"[10]; 2nd listed line, 7.8 g/ha",10%
same,average phytotox value,"[10]; 2nd listed line, 15.6 g/ha",33%
same,average phytotox value,"[10]; 2nd listed line, 31.25 g/ha",68%
same,average phytotox value,"[10]; 2nd listed line, 62.5 g/ha",71%
same,average phytotox value,"[11]; 1st listed line, 7.8 g/ha",8%
same,average phytotox value,"[11]; 1st listed line, 15.6 g/ha",6%
same,average phytotox value,"[11]; 1st listed line, 31.25 g/ha",47%
same,average phytotox value,"[11]; 1st listed line, 62.5 g/ha",54%
same,average phytotox value,"[11]; 2nd listed line, 7.8 g/ha",21%
same,average phytotox value,"[11]; 2nd listed line, 15.6 g/ha",51%
same,average phytotox value,"[11]; 2nd listed line, 31.25 g/ha",47%
same,average phytotox value,"[11]; 2nd listed line, 62.5 g/ha",68%
same,average phytotox value,[12]; 5*10-7,90%
same,average phytotox value,[12]; 5*10^-8M,0%
same,average phytotox value,[12]; 10^-6M,90%
same,average phytotox value,[12]; 10^-7M,10%
same,average phytotox value,[12]; 10^-8M,0%
same,average phytotox value,[13]; 5*10-7,30%
same,average phytotox value,[13]; 5*10^-8M,5%
same,average phytotox value,[13]; 10^-6M,85%
same,average phytotox value,[13]; 10^-7M,30%
same,average phytotox value,[13]; 10^-8M,0%
